From ChEMBL document CHEMBL4831501, “Discovery of a potent and selective inhibitor of histone lysine demethylase KDM4D” (Eur J Med Chem, 2021)
Each block holds one molecule with its values, some of them ahead of it. Active and inactive are the calls of the source. No cut-off for these calls is given here.

What was measured:
[1] = biological target: T1, Lysine-specific demethylase 4D (Homo sapiens) (UniProt Q6B0I6); assay: Inhibition of human KDM4D expressed in Escherichia coli BL21 (DE3) at 1 uM using biotinylated H3-derived peptide and 2-OG as substrate preincubated for 15 mins followed by substrate addition and measured after 1 hr by AlphaLISA assay; conditions: time 75.0 min
T1 sequence (whole entry): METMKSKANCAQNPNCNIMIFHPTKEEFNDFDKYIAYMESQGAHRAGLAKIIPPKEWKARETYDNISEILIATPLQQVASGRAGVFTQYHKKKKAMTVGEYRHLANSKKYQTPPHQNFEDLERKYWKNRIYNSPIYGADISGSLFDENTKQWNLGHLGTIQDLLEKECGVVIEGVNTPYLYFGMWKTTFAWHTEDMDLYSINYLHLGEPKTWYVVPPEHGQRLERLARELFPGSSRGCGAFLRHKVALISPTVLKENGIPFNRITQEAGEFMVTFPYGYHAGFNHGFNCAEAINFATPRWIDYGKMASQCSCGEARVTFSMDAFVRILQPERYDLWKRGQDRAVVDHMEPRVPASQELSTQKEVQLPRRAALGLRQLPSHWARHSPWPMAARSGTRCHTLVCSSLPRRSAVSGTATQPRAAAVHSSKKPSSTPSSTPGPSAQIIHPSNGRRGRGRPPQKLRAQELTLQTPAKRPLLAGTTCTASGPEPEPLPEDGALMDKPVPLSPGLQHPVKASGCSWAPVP

[2] = tested on: HCT-116; assay: Antiproliferative activity against human HCT-116 cells assessed as reduction in cell viability measured after 72 hrs by MTT assay; format: functional, cell-based; conditions: HCT-116, 72 h
[3] = tested on: SW-620; assay: Antiproliferative activity against human SW-620 cells assessed as reduction in cell viability measured after 72 hrs by MTT assay; format: functional, cell-based; conditions: SW-620, 72 h
[4] = tested on: SW480; assay: Antiproliferative activity against human SW480 cells assessed as reduction in cell viability measured after 72 hrs by MTT assay; format: functional, cell-based; conditions: SW480, 72 h
[5] = tested on: A549; assay: Antiproliferative activity against human A549 cells assessed as reduction in cell viability measured after 72 hrs by MTT assay; format: functional, cell-based
[6] = tested on: NCI-H1792; assay: Antiproliferative activity against human NCI-H1792 cells assessed as reduction in cell viability measured after 72 hrs by MTT assay; format: functional, cell-based
[7] = tested on: HepG2; assay: Antiproliferative activity against human HepG2 cells assessed as reduction in cell viability measured after 72 hrs by MTT assay; format: functional, cell-based
[8] = tested on: Huh-7; assay: Antiproliferative activity against human Huh-7 cells assessed as reduction in cell viability measured after 72 hrs by MTT assay; format: functional, cell-based
[9] = tested on: SMMC-7721; assay: Antiproliferative activity against human SMMC-7721 cells assessed as reduction in cell viability measured after 72 hrs by MTT assay; format: functional, cell-based
[10] = tested on: DU-145; assay: Antiproliferative activity against human DU-145 cells assessed as reduction in cell viability measured after 72 hrs by MTT assay; format: functional, cell-based
[11] = tested on: FaDu; assay: Antiproliferative activity against human FaDu cells assessed as reduction in cell viability measured after 72 hrs by MTT assay; format: functional, cell-based
[12] = tested on: HeLa; assay: Antiproliferative activity against human HeLa cells assessed as reduction in cell viability measured after 72 hrs by MTT assay; format: functional, cell-based
[13] = tested on: HCT-116; assay: Inhibition of colony formation in human HCT-116 cells incubated for 7 days by crystal violet staining based assay; format: functional, cell-based; conditions: dose 2.5-10 µM, time 7.0 day
[14] = tested on: SW-620; assay: Inhibition of colony formation in human SW-620 cells incubated for 7 days by crystal violet staining based assay; format: functional, cell-based; conditions: dose 2.5-10 µM, time 7.0 day
[15] = tested on: SW480; assay: Inhibition of colony formation in human SW480 cells incubated for 7 days by crystal violet staining based assay; format: functional, cell-based; conditions: dose 2.5-10 µM, time 7.0 day
[16] = tested on: HCT-116; assay: Inhibition of cell migration in human HCT-116 cells at 10 uM incubated for 36 hrs by wound healing assay; format: functional
[17] = tested on: HCT-116; assay: Inhibition of cell migration in human HCT-116 cells at 20 uM incubated for 36 hrs by wound healing assay; format: functional
[18] = tested on: HCT-116; assay: Inhibition of cell migration in human HCT-116 cells by crystal violet staining based transwell assay; format: functional; conditions: dose 2.5-10 µM
[19] = biological target: T1, Lysine-specific demethylase 4D (Homo sapiens); assay: Inhibition of GST-tagged KDM4D (unknown origin) expressed in Escherichia coli DH5alpha assessed as histone demethylation activity using H3K9me3 as substrate incubated for 4 hrs in presence of FLAG-histone H3 measured by Western blot analysis; conditions: dose 2.5-20 µM
[20] = biological target: T1, Lysine-specific demethylase 4D (Homo sapiens); assay: Inhibition of KDM4D in human HCT-116 cells assessed as reduction in Gli1 protein expression incubated for 48 hrs measured by Western blot analysis; format: cell-based; conditions: dose 2.5-20 µM
[21] = biological target: T1, Lysine-specific demethylase 4D (Homo sapiens); assay: Inhibition of KDM4D in human HCT-116 cells assessed as reduction in beta-catenin protein expression incubated for 48 hrs measured by Western blot analysis; format: cell-based; conditions: dose 2.5-20 µM
[22] = biological target: T1, Lysine-specific demethylase 4D (Homo sapiens); assay: Inhibition of KDM4D in human HCT-116 cells assessed as reduction in c-myc protein expression incubated for 48 hrs measured by Western blot analysis; format: cell-based; conditions: dose 2.5-20 µM
[23] = Inhibition of KDM7B (unknown origin) by AlphaLISA assay; set-up: species or system Homo sapiens
[24] = tested on: HCT-116; assay: Inhibition of cell migration in human HCT-116 cells incubated for 12 to 36 hrs by wound healing assay; format: functional, cell-based; conditions: dose 10-20 µM, time lower 12.0 hrs, time upper […]
[25] = tested on: HCT-116; assay: Inhibition of cell migration in human HCT-116 cells at 10 to 20 uM by wound healing assay; format: functional, cell-based; conditions: dose 10-20 µM, time lower 12.0 hrs, time upper […], TDE = time-dependent effect
[26] = tested on: HCT-116; assay: Downregulation of KDM4D expression in human HCT-116 cells at 2.5 to 20 uM incubated for 48 hrs measured by Western blot analysis; format: functional, cell-based; conditions: dose 2.5-20 µM
[27] = biological target: T2, Lysine-specific demethylase 4D (Homo sapiens, UniProt Q6B0I6); assay: Inhibition of KDM4D (unknown origin)
T2 sequence (Q6B0I6 whole entry): T1 sequence (whole entry)

- inhibition [1]: 99.5%
- IC50 [2]: 10.7 µM
- IC50 [3]: 19.2 µM
- IC50 [4]: 10.7 µM
- inhibition [19]: Dose-Dependent Effect
- inhibition [20]: Dose-Dependent Effect
- inhibition [21]: Dose-Dependent Effect
- inhibition [22]: Dose-Dependent Effect
- IC50 [23]: 82.7 µM
SMILES: CC(C)(C)OC(=O)N[C@@H]1CCN(C(c2ccc(-c3ccncc3)cc2)c2cc3c(cc2O)OCO3)C1 (some centres not stated)
- Activity [5]: Active
- Activity [6]: Active
- Activity [7]: Active
- Activity [8]: Active
- Activity [9]: Active
- Activity [10]: Active
- Activity [11]: Active
- Activity [12]: Active
- inhibition [13]: Dose-Dependent Effect
- inhibition [14]: Dose-Dependent Effect
- inhibition [15]: Dose-Dependent Effect
- inhibition at 10 µM [16]: 42.4%
- inhibition at 20 µM [17]: 94.1%
- inhibition [18]: Dose-Dependent Effect
- inhibition [24]: Dose-Dependent Effect
- inhibition [25]: Tde
- inhibition [26]: Active

- IC50 [27]: 0.29 µM
SMILES: Clc1ccc(N/N=C(\c2ccccc2)c2ccccn2)nc1
